What was measured:
Type in all cases: cell-based, rat
[1] = system: Prep1 and p160 protein levels in L6 cells; test: Western blot of Prep1 and p160 protein levels in L6 cells; conditions: for increase of Prep1 and p160 protein levels: 18h
Procedure: Figure 1 Effect of ceramides dose-response and time-course on Prep1 and p160 protein levels L6 skeletal muscle cells were treated with different concentration of C2cer (10μM and 100μM for 18h) (A) and for different time (10μM for 6h and 18h) (B). Protein lysates were analyzed by Western blot using antibodies for Prep1, p160 and for the beta-actin, as a loading control. Blots were detected by ECL and autoradiography. The autoradiographs are representative of four independent experiments. Asterisks denote statistically significant differences (*p<0.05; **p<0.01).
Figure 2 Effect of ceramides on Prep1 and p160 mRNA expression and of Prep1-p160 coprecipitation L6 cells were treated with C2cer (10μM) for 18h and Prep1 (A) or p160 (B) mRNA levels were analyzed by real-time RT-PCR analysis. Data were normalized by the amount of GAPDH mRNA, used as internal control. Bars represent the mean ± SD of three independent experiments, each performed in triplicate. (C) L6 cells were treated with cycloheximide (CHX) at 40μg/mL concentration for 18h and the lysates were analyzed by Western blot with anti-p160 and beta-actin. The autoradiograph shown is representative of three different experiments and subjected to densitometric analysis. (D) Protein lysates from L6 cells treated with C2cer as indicated, were immunoprecipitated with Prep1 antibody and immunoblotted with p160 or Prep1 antibodies. The autoradiograph shown is representative of three different experiments and subjected to densitometric analysis. Asterisks denote statistically significant differences (*p<0.05; **p<0.01).
Figure 3 Design and in vitro effects of Prep1(54-72) peptide on Prep1/p160 association (A) Binding curves of Prep1(59-72) and Prep1(54-72) peptides to p160_20-160 by ELISA-like assays. Biotinylated peptides at several concentrations were added in triplicate to a 96-well plate coated with p160_20-160 (0.1μM). Experiments were performed at least twice and the average results fitted using GraphPad Prism. […] (B) Competition binding experiments. His6-tagged-p160_20-160 at 0.25μM was incubated with Prep1(59-72) and Prep1(54-72) at concentrations ranging between 0.001÷10μM and added to a 96-well plate coated with Prep1_45-155 (0.10μM). Results are the average of three independent experiments. (C) L6 cells were incubated with increasing concentrations of the fluorescein-conjugated peptide (FITC-Prep1(54-72)) and peptide uptake was detected by FACS analysis of fluorescein-labeled cells. Bars represent the mean ± SD of four independent experiments. (D) L6 muscle cells incubated with Prep1(54-72) were stimulated with C2cer (10μM) for 18h. Protein lysates were immunoprecipitated with Prep1 antibodies and analyzed by Western blot using antibodies for p160 or for Prep1. (E) An aliquot of the lysate was used to measure protein expression of Prep1 and p160 and the beta-actin used as loading control. The blots were detected by ECL and autoradiography. The autoradiograph is representative of three independent experiments. Asterisks denote statistically significant differences (*p<0.05; **p<0.01).
L6 rat skeletal muscle cells (ATCC, Manassas, VA, USA) were cultured in DMEM supplemented with 10% FBS and 1% penicillin/streptomycin solution at 37°C in a humidified 95% air and 5% CO2 atmosphere (all vol./vol.). […]
Total cell lysates were obtained and separated by SDS-PAGE. […] The protein concentrations in the cell lysates were measured using a Bio-Rad DC (detergent compatible) assay. […]

[2] = system: IR tyrosine phosphorylation; test: IR tyrosine phosphorylation, immunoprecipitation and Western blot; conditions: insulin 100nM; for effect on insulin-stimulated IR tyrosine phosphorylation: L6 cells, C2cer 10μM 18h, with or without Prep1(54-72)
Procedure: (§1) Figure 4 Prep1(54-72) peptide restores the insulin signaling inhibited by C2cer and Prep1 L6 cells were stimulated with insulin (100nM) and incubated with Prep1(54-72) in presence of C2cer at 10μM for 18h (A-B) or stable transfection of Prep1 (C-D). Protein lysates were immunoprecipitated with specific IR or IRS1 antibodies and analyzed by Western blot using antibodies for phosphotyrosines (pY) and beta-actin as loading control. Blots were detected by ECL and autoradiography. The autoradiographs are representative of three independent experiments. Asterisks denote statistically significant differences (*p<0.05; **p<0.01).
(§2) Total cell lysates were obtained and separated by SDS-PAGE. Briefly, cells were solubilized with lysis buffer containing 50mM HEPES, 150mM NaCl, 10mM EDTA, 10mM Na4P2O7, 2mM sodium orthovanadate, 50mM NaF, 1mM phenylmethylsulfonyl fluoride, 10μg/ml aprotinin, 10μg/ml leupeptin, pH 7.4, and 1% (v/v) Triton X-100. Lysates were clarified by centrifugation at 12,000g for 20 minutes at 4°C. The protein concentrations in the cell lysates were measured using a Bio-Rad DC (detergent compatible) assay. Immunoprecipitation and Western blot analysis have been performed as previously described.

L6 cells = test: 2-DG uptake in L6 cells; conditions: for effect on insulin-stimulated glucose uptake (2-DG): insulin 100nM, C2cer 10μM, with or without Prep1(54-72)
Procedure: Figure 6 Effect of Prep1(54-72) peptide on glycogen content and 2-DG uptake L6 control and Prep1 overexpressing cells were stimulated with Insulin (100nM) and/or C2cer (10μM) and incubated with Prep1(54-72). (A) Glycogen content and (B) 2-DG uptake were measured as described in methods. Bars represent the mean ± SD of three independent experiments. Asterisks denote statistically significant differences (*p<0.05; **p<0.01; ***p<0.001).
Glycogen was isolated from L6 cells homogenized in 0.1% SDS, saturated with Na2SO4 for 30 minutes at 37°C, followed by ethanol (EtOH) precipitation. Glycogen content was determined as previously described. 2-DG uptake by the L6 cells was measured as previously reported.

[3] = system: IRS1 tyrosine phosphorylation; test: IRS1 tyrosine phosphorylation, immunoprecipitation and Western blot; conditions: insulin 100nM; for effect on insulin-stimulated IRS1 tyrosine phosphorylation: L6 cells, C2cer 10μM 18h, with or without Prep1(54-72)
Procedure: as §1, §2

[4] = C2cer 10μM 18h, incubated with Prep1(54-72)
[5] = Prep1L6 cells (stably transfected with Prep1 cDNA), incubated with Prep1(54-72)

Compound	increase of Prep1 and p160 protein levels ([1]; C2cer 10μM) [%]	increase of Prep1 and p160 protein levels ([1]; C2cer 100μM) [%]	effect on insulin-stimulated IR tyrosine phosphorylation [2]	reduction of insulin-stimulated glucose uptake (L6 cells; C2cer exposure (abstract)) [fold]	effect on insulin-stimulated glucose uptake (2-DG) (L6 cells)	effect on insulin-stimulated IRS1 tyrosine phosphorylation [3]	decrease of ceramide-induced p160 levels [1, 4] [%]	effect on ceramide-induced Prep1 levels [1, 4]	IR tyrosine phosphorylation in Prep1 overexpressing cells [2, 5]	IRS1 tyrosine phosphorylation in Prep1 overexpressing cells [3, 5]
CCCCCCCCCCCCC/C=C/[C@@H](O)[C@H](CO)NC(C)=O [C2cer, D-erythro-Sphingosine, N-Acetyl-, reference compound]	50	90	blocked	2.1	negatively modulated	blocked	–	–	–	–
Ac-KQAIYRHPLFPLLALLFEK-NH2 [Prep1(54-72)]	–	–	restored	–	recovered the insulin response	restored	25	did not modify	stimulated similarly to the control cells	stimulated similarly to the control cells
